Tests used:
[1] = molecular target: T1, human mGluR5 (Homo sapiens, UniProt P41594); assay: Functional in vitro activity at human mGluR5 receptors (FLIPR calcium assay, antagonism of glutamate EC90 response); assay type: cell-based; settings: AV-12 cells expressing recombinant human mGluR5a and rat EAAT1, relative IC50, read-out: IC50 measured at mGluR5
T1 construct: expressed in transfected cells; host or cells: AV-12 cells (ATCC) containing the rat EAAT1 glutamate transporter
Description: Functional in Vitro Activity at Human mGluR5; and mGluR1; Receptors
The activation of G-protein coupled receptors (GPCRS) that are coupled to GTP-binding protein alpha q (Gq proteins) results in a change in intracellular calcium concentration. This functional response can be measured in a kinetic assay using calcium-sensitive dyes and a fluorescent imaging plate reader using a standard technique known as FLIPR (MDS Analytical Technologies, Sunnyvale, Calif.). Stable cell line preparation and assay techniques are adapted from Kingston, A. E., et. al. (1995) Neuropharmacology 34: 887-894. […]
For the functional assays, cells are seeded in growth medium lacking selection antibiotics at a density of 65K per well into 96-well, black/clear bottom, poly-D-lysine coated microplates and incubated for 18-20; hours prior to the experiment. […] The antagonist effects of compounds are quantified in the FLIPR instrument in 10-point dose curves by comparing the peak fluorescent responses to the agonist glutamate in the presence and absence of compound. Specifically, the compound effect is measured as maximal minus minimal peak heights in relative fluorescent units corrected for basal fluorescence as measured in the absence of glutamate. […]

[2] = system: stress-induced hyperthermia in rats; assay: Attenuation of stress-induced hyperthermia in rats; assay type: in vivo, rat; settings: male Fischer F-344 rats, p.o., 60 min pretreatment, T2-T1 rectal temperature
Description: Attenuation of Stress-Induced Hyperthermia in Rats
In many anxiety disorders, hyperthermia occurs as part of the pathology and is considered a symptom of the disease. Compounds which attenuate stress-induced hyperthermia in animals are believed to be useful in treating anxiety disorders in humans.
The conventional and minimally-invasive method for analyzing stress-induced hyperthermia is by measuring body temperature, and stress-induced increases in body temperature, via rectal thermometer. Male Fischer F-344; rats (Harlan, Indianapolis, Ind., USA) weighing between 275-350; g are tested. All animals are individually-housed with food and automated water available ad libitum, and maintained on a 12; h light/dark cycle (lights on at 06:00). Animals are fasted for approximately 12-18; hours before the experiment, which is conducted during the light phase. […]
After the pretreatment period, rats are taken individually to a brightly lit adjacent room where baseline body temperatures are determined by insertion of a rectal probe lubricated with mineral oil. Body temperature is assessed using a PHYSITEMP BAT-12® Microprobe Thermometer with a PHYSITEMP RET-2® rat rectal probe (Physitemp Instruments Inc., Clifton, N.J., USA). […] Ten minutes later a second body temperature measurement is recorded (T2). […]

T1 sequence (P41594 21-1180 isoform P41594-2 limits assumed): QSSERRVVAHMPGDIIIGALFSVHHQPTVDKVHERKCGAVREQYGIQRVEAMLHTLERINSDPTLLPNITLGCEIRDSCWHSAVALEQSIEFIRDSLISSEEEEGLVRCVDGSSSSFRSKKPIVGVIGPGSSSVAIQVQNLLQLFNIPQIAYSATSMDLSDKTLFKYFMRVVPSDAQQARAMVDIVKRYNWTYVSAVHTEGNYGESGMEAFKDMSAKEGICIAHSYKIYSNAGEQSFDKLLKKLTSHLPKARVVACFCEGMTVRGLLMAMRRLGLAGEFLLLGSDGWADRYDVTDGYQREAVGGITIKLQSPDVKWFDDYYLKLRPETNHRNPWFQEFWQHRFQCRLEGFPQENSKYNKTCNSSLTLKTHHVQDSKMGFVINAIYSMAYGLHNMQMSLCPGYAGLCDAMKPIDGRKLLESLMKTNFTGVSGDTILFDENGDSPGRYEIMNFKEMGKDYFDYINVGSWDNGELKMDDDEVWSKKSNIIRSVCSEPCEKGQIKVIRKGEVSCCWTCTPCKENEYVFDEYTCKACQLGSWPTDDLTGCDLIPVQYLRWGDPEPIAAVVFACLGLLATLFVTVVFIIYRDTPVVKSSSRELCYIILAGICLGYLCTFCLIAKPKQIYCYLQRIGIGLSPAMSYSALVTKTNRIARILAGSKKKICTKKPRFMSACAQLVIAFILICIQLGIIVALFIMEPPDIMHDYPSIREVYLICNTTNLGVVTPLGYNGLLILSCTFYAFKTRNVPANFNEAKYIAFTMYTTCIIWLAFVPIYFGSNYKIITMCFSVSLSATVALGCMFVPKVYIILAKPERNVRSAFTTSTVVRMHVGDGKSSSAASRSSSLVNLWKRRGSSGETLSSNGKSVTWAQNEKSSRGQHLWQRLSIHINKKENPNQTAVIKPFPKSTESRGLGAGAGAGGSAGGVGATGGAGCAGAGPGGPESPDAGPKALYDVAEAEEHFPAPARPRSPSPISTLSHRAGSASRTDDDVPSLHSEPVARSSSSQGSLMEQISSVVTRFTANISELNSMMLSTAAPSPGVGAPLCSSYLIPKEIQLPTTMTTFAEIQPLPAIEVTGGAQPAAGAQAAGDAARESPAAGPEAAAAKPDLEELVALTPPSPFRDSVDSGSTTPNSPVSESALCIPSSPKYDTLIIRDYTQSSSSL

IC50 [1] [nM] | melting point [°C] | SMILES | T35 dose (dose producing a 35% reduction in stress-induced hyperthermic response relative to vehicle) [2] [mg/kg]
9.5 | – | CCc1cccc(-c2c(-c3ccc4nn(C)cc4c3)nsc2NC(=O)[C@@H]2C[C@H]2C)n1.Cl [Example 2, (1R,2R)-2-methyl-cyclopropanecarboxylic acid [4-(6-ethyl-pyridin-2-yl)-3-(2-methyl-2H-indazol-5-yl)-isothiazol-5-yl]-amide hydrochloride] | 3.0
– | 142 to 144 | CC(C)c1cccc(-c2c(-c3ccc4nn(C)cc4c3)nsc2NC(=O)[C@@H]2C[C@H]2C)n1 [Example 23, (1R,2R)-2-methyl-cyclopropanecarboxylic acid [4-(6-isopropyl-pyridin-2-yl)-3-(2-methyl-2H-indazol-5-yl)-isothiazol-5-yl]-amide] | –
– | 159.4 | CCc1cccc(-c2c(-c3ccc4nn(C)cc4c3)nsc2NC(=O)[C@@H]2C[C@H]2C)n1 [Example 22, (1R,2R)-2-methyl-cyclopropanecarboxylic acid [4-(6-ethyl-pyridin-2-yl)-3-(2-methyl-2H-indazol-5-yl)-isothiazol-5-yl]-amide] | –
